Experimental data from patent US5922683A, “Multicyclic erythromycin derivatives” (Abbott Laboratories, priority 1998, dated 1999).

Key:
Format in all cases: cell-based
Conditions in all cases: BHI agar, 35-37° C., 20 to 24 hours
[1] = tested on: STAPHYLOCOCCUS AUREUS CMX 642A; test: In vitro antibacterial activity (agar dilution MIC)
Description: (§1) Representative compounds of the present invention were assayed in vitro for antibacterial activity as follows: Twelve petri dishes containing successive aqueous dilutions of the test compound mixed with 10 mL of sterilized Brain Heart Infusion (BHI) agar (Difco 0418-01-5) were prepared. Each plate was inoculated with 1:100 (or 1:10 for slow-growing strains, such as Micrococcus and Streptococcus) dilutions of up to 32 different microorganisms, using a Steers replicator block. The inoculated plates were incubated at 35-37° C. for 20 to 24 hours. In addition, a control plate, using BHI agar containing no test compound, was prepared and incubated at the beginning and end of each test.
(§2) An additional plate containing a compound having known susceptibility patterns for the organisms being tested and belonging to the same antibiotic class as the test compound was also prepared and incubated as a further control, as well as to provide test-to-test comparability. Erythromycin A was used for this purpose.
(§3) After incubation, each plate was visually inspected. The minimum inhibitory concentration (MIC) was defined as the lowest concentration of drug yielding no growth, a slight haze, or sparsely isolated colonies on the inoculum spot as compared to the growth control.

[2] = tested on: STAPHYLOCOCCUS AUREUS ATCC 6538P; test: as above
Description: as §1, §2, §3

[3] = tested on: STAPHYLOCOCCUS AUREUS A-5278; test: as above
Description: as §1, §2, §3

N. ASTEROIDES ATCC 9970 = test: as above
Description: as §1, §2, §3

[4] = tested on: STREPTOCOCCUS PYOGENES EES61; test: as above
Description: as §1, §2, §3

[5] = tested on: STAPHYLOCOCCUS AUREUS NCTC10649M; test: as above
Description: as §1, §2, §3

ESCHERICHA COLI SS = test: as above
Description: as §1, §2, §3

STR[…] 930 = test: as above
Description: as §1, §2, §3

ESCHERICHIA COLI DC-2 = test: as above
Description: as §1, §2, §3

ESCHERICHIA COLI JUHL = test: as above
Description: as §1, §2, §3

[6] = tested on: STREPTOCOCCUS BOVIS A-5169; test: as above
Description: as §1, §2, §3

STR[…] PIU 2548 = test: as above
Description: as §1, §2, §3

[7] = tested on: STAPHYLOCOCCUS AUREUS A5177; test: as above
Description: as §1, §2, §3

[8] = tested on: STAPHYLOCOCCUS AUREUS CMX 553; test: as above
Description: as §1, §2, §3

[9] = tested on: STAPHYLOCOCCUS AUREUS 1775; test: as above
Description: as §1, §2, §3

CANDIDA ALBICANS CCH 442 = test: In vitro antimicrobial activity (agar dilution MIC)
Description: as §1, §2, §3

[10] = tested on: MYCOBACTERIUM SMEGMATIS ATCC 114; test: In vitro antibacterial activity (agar dilution MIC)
Description: as §1, §2, §3

[11] = tested on: STAPHYLOCOCCUS EPIDERMIDIS 3519; test: as above
Description: as §1, §2, §3

SMILES | minimum inhibitory concentration (MIC) [1] | minimum inhibitory concentration (MIC) [2] | minimum inhibitory concentration (MIC) [3] | minimum inhibitory concentration (MIC) (N. ASTEROIDES ATCC 9970) | minimum inhibitory concentration (MIC) [4] | minimum inhibitory concentration (MIC) [5] | minimum inhibitory concentration (MIC) (ESCHERICHA COLI SS) | minimum inhibitory concentration (MIC) (STR[…] 930) | minimum inhibitory concentration (MIC) (ESCHERICHIA COLI DC-2) | minimum inhibitory concentration (MIC) (ESCHERICHIA COLI JUHL) | minimum inhibitory concentration (MIC) [6] | minimum inhibitory concentration (MIC) (STR[…] PIU 2548) | minimum inhibitory concentration (MIC) [7] | minimum inhibitory concentration (MIC) [8] | minimum inhibitory concentration (MIC) [9] | minimum inhibitory concentration (MIC) (CANDIDA ALBICANS CCH 442) | minimum inhibitory concentration (MIC) [10] | minimum inhibitory concentration (MIC) [11]
C=CCO[C@]1(C)C[C@@H](C)C2=Nc3ccccc3N3C(=O)O[C@](C)([C@@H](CC)OC(=O)[C@H](C)C(=O)[C@H](C)[C@H]1O[C@@H]1O[C@H](C)C[C@H](N(C)C)[C@H]1O)[C@H]3[C@H]2C [Ex 8] | 0.78 | 0.78 | > 100 | 3.1 | 0.39 | 0.78 | 12.5 | > 100 | > 100 | > 100 | 0.1 | 0.78 | 0.78 | 0.78 | > 100 | > 100 |  | 
CC[C@H]1OC(=O)[C@H](C)C(=O)[C@H](C)[C@@H](O[C@@H]2O[C@H](C)C[C@H](N(C)C)[C@H]2O)[C@](C)(OC)C[C@@H](C)C2=Nc3cc(C)ccc3N3C(=O)O[C@@]1(C)[C@H]3[C@H]2C [Ex 4] | 0.78 | 0.78 | > 100 | 0.1 |  | 0.78 | 0.2 | > 100 | > 100 | > 100 |  | 0.2 | 0.78 |  |  | > 100 | 100 | 
CC[C@H]1OC(=O)[C@H](C)C(=O)[C@H](C)[C@@H](O[C@@H]2O[C@H](C)C[C@H](N(C)C)[C@H]2O)[C@](C)(OC)C[C@@H](C)C2Nc3ccccc3N3C(=O)O[C@@]1(C)[C@H]3[C@H]2C (single isomer, unassigned) [Ex 3] |  | 25 | > 100 |  | 3.1 |  | 100 | > 100 | > 100 | > 100 | 1.56 | 25 | 25 |  | > 100 | > 100 |  | 
CC[C@H]1OC(=O)[C@H](C)C(=O)[C@H](C)[C@@H](O[C@@H]2O[C@H](C)C[C@H](N(C)C)[C@H]2O)[C@](C)(OC)C[C@@H](C)C2=Nc3ccccc3N3C(=O)O[C@@]1(C)[C@H]3[C@H]2C [Ex 2] | 0.39 | 0.39 | > 100 | 0.39 | 0.1 | 0.39 | 1.56 | > 100 | > 100 | > 100 | 0.1 | 0.39 | 0.39 | 0.39 | > 100 | > 100 | 3.1 | 0.39
